According to patent US11008286B2, “Amino mercaptan compound and preparation method therefor and use thereof in protection against radiation” (Institute of Radiation Medicine Chinese Academy of Medical …, priority 2016, dated 2021):
“And” between values parts separate entries of the source, which are not always exact repeats. Equal entries are not always repeated. Structures can show the parent of a compound that is named as a salt. Where two headings read alike, the source gives them in different places.

What was measured:
C57 male mice [1] = format: in vivo; details: for Survival number/Test number: no irradiation, 30-day
Experimental: Administration and grouping: Each group was intraperitoneally injected with one corresponding dose of amifostine. • Each group was intraperitoneally injected with one corresponding dose of Example 17 (IP).
The 30-day survival rate of mice in each group was recorded.

C57 male mice [2] = test: Example D: protective effect on the hematopoietic system after 4Gy irradiation; format: in vivo; details: 800 mpk IP 30 min before 4Gy
From the text: The mice were sacrificed on the 15th day after the irradiation, followed by blood collection. Femoral bone marrow cells, spleen and thymus were weighed, and cells were extracted for detecting the peripheral white blood cell (WBC) count, peripheral red blood cell (RBC) count, peripheral hemoglobin (HGB) concentration, peripheral platelet (PLT) count, peripheral blood lymphocyte ratio (LY %), and peripheral blood neutrophil ratio (NE %).
In addition, the number of leukocytes in bone marrow, ratio of hematopoietic stem cell (LSK) in bone marrow cells, ratio of hematopoietic progenitor cells (HPC) in bone marrow cells, ratio of CD34−LSK in bone marrow cells, and ratio of CD34+LSK in bone marrow cells were detected.
The effects of irradiation on LSK intracellular reactive oxygen species (ROS) level and HPC intracellular ROS level were also detected.

C57 male mice [3] = test: Example E2: HE staining of small intestine on the 5th day after local abdominal irradiation; format: in vivo
Experimental: In amifostine group, intraperitoneal injection was performed 30 min before the local abdominal irradiation at 16Gy, wherein amifostine was dissolved in normal saline, 365 mpk.
In Example 4 group, intraperitoneal injection was performed 30 min before the local abdominal irradiation at 16Gy, wherein Example 4 was dissolved in normal saline, 517 mpk.
The mice were sacrificed on the 5th day after the irradiation, and the small intestine was taken and sectioned for HE staining.

C57 male mice [4] = test: Example F: radiation pneumonia, HE staining of right lung on the 60th day after 17Gy X rays; format: in vivo
Experimental: Administration and grouping: Mice were intraperitoneally injected with normal saline, Example 4 (400 mpk), and amifostine (200 mpk) respectively 30 min before irradiation, and the right lungs were irradiated at 17Gy by X rays. The right lungs were taken on the 60th day for HE staining (n=3):
Two months after irradiation of the unilateral lung, the most important lung manifestation was radiation pneumonia. […] The alveolar structure of mice in the 17Gy group was changed, which was manifested as a large area of inflammatory infiltration of the lung (the blue dots were inflammatory cells), and the alveoli were filled with inflammatory cells.

C57 male mice [5] = test: Example G: effect of stereoisomerism on survival rate of mice under 7.5Gy irradiation; format: in vivo; details: 200 mg/kg IP 30 min before irradiation
From the text: Laboratory animals: C57 male mice, 19-21 g, purchased from Beijing HFK Bioscience Co. Ltd., license number SCXK (Beijing), 9 mice in each group.

C57 male mice [6] = tested on: C57 male mice;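 on survival rate compared with amifostine: mice aged 8-10 weeks, weighing 20-22 g, with deaths logged and survival rate computed on day 30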;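 on survival rates compared with amifostine: mice aged 8-10 weeks, weighing 20-22 g, with deaths logged and survival rate computed on day 30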
Experimental: Laboratory animals: C57 male mice, 8-10 weeks old, 20-22 g, were divided into 4 groups, 5 or 10 or 15 or 20 or 25 mice in each group.
Observation index: The death and weight of the mice were recorded, and the survival rate was calculated on the 30th day.

[7] = cited from earlier work
[8] = 15th day, vs irradiation control
[9] = 6.8Gy, 200 mpk IP 30 min before irradiation, day 30

SMILES: CNC(=O)[C@H](CS)NC(=O)[C@H](CS)NC(=O)[C@H](CS)NC [Example 4, (R)-3-mercapto-N—((R)-3-mercapto-1-(((R)-3-mercapto-1-(methylamino)-1-oxopropan-2-yl)amino)-1-oxopropan-2-yl)-2-(methylamino) propanamide trifluoroacetate]
- Survival number/Test number (C57 male mice [1]; 400 mpk IP): 10/10
- Survival number/Test number (C57 male mice [1]; 600 mpk IP): 5/5
- Survival number/Test number (C57 male mice [1]; 800 mpk IP): 10/10
- Survival number/Test number (C57 male mice [1]; 900 mpk IP): 10/10
- Survival number/Test number (C57 male mice [1]; 1000 mpk IP): 6/6 and 10/10
- Survival number/Test number (C57 male mice [1]; 1100 mpk IP): 8/10
- Survival number/Test number (C57 male mice [1]; 1200 mpk IP): 6/10
- Survival number/Test number (C57 male mice [1]; 1600 mpk IP): 3/10
- Survival rate (C57 male mice [1]; male, C57, mouse, in vivo, 1000 mg/kg, 30 day): 100%
- safety compared with amifostine (C57 male mice [1]; mouse, in vivo): as safe as or even better than amifostine
- number of leukocytes (WBC) in bone marrow (C57 male mice [2]; 15th day): increased by administration of Example 4 with significant difference
- ratio of hematopoietic progenitor cells (HPC) in bone marrow cells (HPC %) (C57 male mice [2]; 15th day): increased by administration of Example 4 with significant difference
- ratio of hematopoietic stem cell (LSK) in bone marrow cells (LSK %) (C57 male mice [2]; 15th day): increased by administration of Example 4 with significant difference
- ratio of CD34+LSK in bone marrow cells (C57 male mice [2]; 15th day, irradiation decreased CD34+LSK %): alleviated this abnormal differentiation with significant difference
- ratio of CD34−LSK in bone marrow cells (C57 male mice [2]; 15th day, irradiation increased CD34−LSK %): alleviated this abnormal differentiation with significant difference
- peripheral blood neutrophil ratio (NE %) (C57 male mice [2]; 15th day, irradiation increased NE %): alleviated this abnormal differentiation with significant difference
- peripheral blood lymphocyte ratio (LY %) (C57 male mice [2]; 15th day, irradiation reduced LY %): alleviated this abnormal differentiation with significant difference
- peripheral red blood cell (RBC) count (C57 male mice [2]; [8]): increased by administration of Example 4 with significant difference
- peripheral white blood cell (WBC) count (C57 male mice [2]; [8]): increased by administration of Example 4 with significant difference
- HPC intracellular ROS level (C57 male mice [2]; bone marrow): reduced the ROS levels with significant difference
- LSK intracellular reactive oxygen species (ROS) level (C57 male mice [2]; bone marrow): reduced the ROS levels with significant difference
- intestinal villi structure (HE staining) (C57 male mice [3]; 517 mpk IP 30 min before local abdominal irradiation at 16Gy): slight changes compared with the irradiation group
- inflammatory cell infiltration of lung / incidence of radiation pneumonia (C57 male mice [4]; 400 mpk IP 30 min before 17Gy X rays to right lung): partially relieve inflammatory cell infiltration and reduce the incidence of radiation pneumonia
- Survival number/Test number (C57 male mice [5]): 5/9
- Survival rate (C57 male mice [5]): approximately 56%
- deaths (C57 male mice [5]; 9 mice per group): (4 deaths)
- Survival number/Test number (C57 male mice [6]; 7.2Gy, 200 mpk IP, day 30): 20/25
- Survival rate (C57 male mice [6]; 7.2Gy, 200 mpk IP, day 30): 80%
- Survival number/Test number (C57 male mice [6]; 7.5Gy, 517 mpk IP): 9/10
- Survival rate (C57 male mice [6]; 7.5Gy, 517 mpk IP): 90%
- Survival number/Test number (C57 male mice [6]; 7.5Gy, 800 mpk IP): 7/10
- Survival rate (C57 male mice [6]; 7.5Gy, 800 mpk IP): 70%
- Survival number/Test number (C57 male mice [6]; 10Gy, 365 mpk IP): 15/20
- Survival rate (C57 male mice [6]; 10Gy, 365 mpk IP): 75%
- Survival number/Test number (C57 male mice [6]; 12.5Gy, 365 mpk IP): 4/10
- Survival rate (C57 male mice [6]; 12.5Gy, 365 mpk IP): 40%
- survival rates compared with amifostine (C57 male mice [6]; absorbed dose 6.8Gy and 7.2Gy): survival rates comparable to those using amifostine
- survival rate compared with amifostine (C57 male mice [6]; higher absorbed dose, as high as 12.5Gy): a survival rate equivalent to those using amifostine

SMILES: NCCCNCCSP(=O)(O)O [Amifostine, amifostine, reference compound]
- Survival number/Test number (C57 male mice [1]; 400 mpk IP): 5/5
- Survival number/Test number (C57 male mice [1]; 600 mpk IP): 5/5
- Survival number/Test number (C57 male mice [1]; 800 mpk IP): 3/5
- Survival number/Test number (C57 male mice [1]; 1600 mpk IP): 0/5
- intestinal villi structure (HE staining) (C57 male mice [3]; 365 mpk IP 30 min before local abdominal irradiation at 16Gy): slight changes compared with the irradiation group
- inflammatory cell infiltration of lung / incidence of radiation pneumonia (C57 male mice [4]; 200 mpk IP 30 min before 17Gy X rays to right lung): partially relieve inflammatory cell infiltration and reduce the incidence of radiation pneumonia
- Survival number/Test number (C57 male mice [6]; [9]): 5/5
- Survival rate (C57 male mice [6]; [9]): 100%
- Survival number/Test number (C57 male mice [6]; 7.2Gy, 200 mpk IP, day 30): 9/10 and 12/15 and 4/5 and 7/10 and 20/25
- Survival rate (C57 male mice [6]; 7.2Gy, 200 mpk IP, day 30): 90% and 80% and 70%
- Survival number/Test number (C57 male mice [6]; 7.5Gy, 200 mpk IP, day 30): 5/5 and 4/5 and 1/10
- Survival number/Test number (C57 male mice [6]; 7.5Gy, 365 mpk IP): 10/10
- Survival rate (C57 male mice [6]; 7.5Gy, 365 mpk IP): 100%
- Survival number/Test number (C57 male mice [6]; 10Gy, 517 mpk IP): 15/20
- Survival rate (C57 male mice [6]; 10Gy, 517 mpk IP): 75%
- Survival number/Test number (C57 male mice [6]; 12.5Gy, 517 mpk IP): 5/10
- Survival rate (C57 male mice [6]; 12.5Gy, 517 mpk IP): 50%
- half-life [7]: 7 min
